The values that follow come from patent publication US20050085546A1, “Method of inducing differentiation of dendritic cells” (Council of Scientific & Industrial Research, priority 2003, published 2005).

Series [1] concerns BM leukocyte precursors. As to the kind of experiment: Viability of stimulated BM leukocyte precursor cultures. Format: cell-based, BALB/c mouse. Details: Viability, % of Viable cells: reference not given here. The protocol: (§1) The fine suspension obtained above was transferred into a 50 ml sterile centrifuge tube and centrifuged for 10 minutes at 1200 rpm. […] The pellets were washed using HBSS wash buffer and then centrifuged again for 10 minutes at 1200 rpm. This process was repeated for one more time. […] This suspension was then finally passed through a MACS (Magnetic Activated Cell Sorting) column to get essentially and predominately leukocyte precursors.

Series [2] deals with osteoclast precursors (murine bone marrow cells, M-CSF + RANKL). As to the kind of experiment: In vitro osteoclastogenesis assay (TRAP staining). The note with it: M-CSF + RANKL + compound 5.0 μg/ml, 6 days. Format: cell-based, Balb/c mice.
Series [3] shares this test system. As to the kind of experiment: In vitro osteoclastogenesis assay (TRAP staining). Format: cell-based, Balb/c mice. The note with it: for % inhibition of osteoclast formation / Number of TRAP-positive multinuclear cells/well of 96 well plate (Mean ± SEM): 6 days. The text has this: Culture of murine bone marrow cells in the presence of M-CSF and RANKL induces the formation of osteoclasts, which were detected as TRAP-positive cells. […] Values given are the mean±SD of five separate experiments.
For in vitro osteoclastogenesis bone marrow cells were isolated from 5- to 8-wk-old Balb/c mice. Mice were sacrificed by cervical dislocation and femora and tibiae were aseptically removed and dissected free of adherent soft tissues. The bone ends were cut, and the marrow cavity was flushed out with medium MEM from one end of the bone using a sterile 21-gauge needle. The bone marrow suspension was carefully agitated with a plastic Pasteur pipette to obtain a single-cell suspension. The cells were washed twice and resuspended (10^6 cells/ml) in aMEM containing 10% FBS. […] After 24 h, nonadherent cells were harvested and layered on a Ficoll-Hypaque gradient. Cells at the gradient interface were collected, washed and resuspended (5×10^5/ml) in AMEM containing 10% FBS. In this study, we called these stromal cell-free, M-CSF-dependent, nonadherent cells as osteoclast precursors. These osteoclast precursors were added to 96-well plates (100 μl/well) containing plastic coverslips. Each well received further 100 μl of medium containing M-CSF (30 ng/ml), RANKL (30 ng/ml) without or with various concentrations of purified compound. Cultures were fed every 2-3 days and after incubation for 6 days osteoclast formation was evaluated by tartrate-resistant acid phosphatase (TRAP) staining. The number of TRAP-positive multinucleated cells (MNCs) containing 3 or more nuclei was scored.
TRAP is preferentially expressed at high levels in osteoclast and is considered, especially in the mouse, to be an osteoclast marker. Cytochemical staining for TRAP is widely used for identifying the osteoclasts in vivo and in vitro. It is claimed to be specific for osteoclasts in bone. After incubation, cells on cover slips were washed in PBS, fixed in 10% formalin for 10 min and stained for acid phosphatase in the presence of 0.05 M sodium tartrate. The substrate used was napthol AS-BI phosphate. Only those cells that were strongly TRAP-positive (dark red) counted by light microscopy.

For series [4], the system named is BM leukocyte precursors. As to the kind of experiment: Differentiation of dendritic cells from bone marrow leukocyte precursors; cell surface marker expression by flow cytometry. Format: cell-based, BALB/c mouse. As to conditions: for differentiation of dendritic cells (in words): from BM precursors. The protocol:
Cells were stained for the surface levels of indicated markers. Plates A-D represent surface levels of CD80, CD54, CD11c and H-2D (MHC class 1), respectively. […] The Green line represents staining of stimulated cells while the black line depicts staining of unstimulated cells.
as §1
In order to evaluate the upregulation of various cell surface markers associated with Dendritic cells, flow cytometry on the cells stimulated with GM-CSF or the compound was carried out using fluorescent labeled antibodies to various molecules (CD11c, I-A^d, CD80, CD86, H2-D^d, CD54, CD40).
The hind limbs of the mouse were removed carefully and placed in a Petri dish with HBSS (Hanks Balanced Saline Solution) wash buffer. The tibias and femurs were cleared of all surrounding and attached tissues. This was followed by chipping the ends of bones. The bone marrow was flushed out by injecting HBSS solution into the bone with the help of a hypodermal syringe (No. 26 gauge). The bone marrow was finally made into a fine suspension by syringing in and out of the fluid several times using an 18 gauge syringe needle.
(Flow cytometry measures light scatter and fluorescence of single cells or particles in a stream.)

Where [5] appears, read: M-CSF + RANKL + compound 0.5 μg/ml.
Setting [6] is: M-CSF + RANKL + compound 1.5 μg/ml.
Where [7] appears, read: M-CSF + RANKL + compound 3.0 μg/ml.
[8] abbreviates: M-CSF + RANKL + compound 5.0 μg/ml.
[9] abbreviates: Table B, concentration not given.
The mark [10] stands for this setting: Table A, 15 ng/ml GM-CSF or 50 micro gram per ml synthetic compound, 48 h.

Take `O=C([O-])CC[C@H](NS(=O)(=O)[O-])C(=O)[O-].O=C([O-])CC[C@H](NS(=O)(=O)[O-])C(=O)[O-].[Ca+2].[Ca+2].[Ca+2]` [compound 1, L-glutamyl-N-sulphonic acid, Ca salt]: the “viability of the cultures at the end of the incubation period” value is given as “more than 99%” in series [1] (200 mM, 48 h) and greater than 99% in series [1] (50 micro gram per ml, 48 h). The “Number of TRAP-positive multinuclear cells/well of 96 well plate (Mean ± SEM)” value in series [2] stood at 2.83 ± 1.05 cells/well; in series [3] (setting [5]), 109.67 ± 9.79 cells/well; in series [3] (setting [6]), 52.17 ± 6.42 cells/well; in series [3] (setting [7]) it was 14.67 ± 1.98 cells/well. Further, the “% inhibition of osteoclast formation” value in series [3] (setting [5]) was determined as 21.01%; in series [3] (setting [6]) it was 62.19%; in series [3] (setting [7]) it was 89.36%; in series [3] (setting [8]) it was 97.94%. Also, in series [3] (increasing dose), the “inhibition in the number of osteoclast cells generated (in words)” value is reported as “dose dependent inhibition”. In series [4] (BM leukocyte precursors incubated with different concentrations), the “concentration of maximum up regulation of cell surface densities of CD11c, CD80, CD54” value was found to be 200 mM. For the same compound, the “differentiation of dendritic cells (in words)” value is recorded as “Induces Differentiation of Dendritic Cells” in series [4] (listed as Compound I) and “induces the differentiation of DCs from BM precursors” in series [4] (listed as the compound).
With `O=C(O)CC[C@H](NS(=O)(=O)O)C(=O)O` [compound 3, L-glutamyl-N-sulphonic acid], the “Viability, % of Viable cells” value in series [1] (setting [9]) is reported as 115%. The “Number of TRAP-positive multinuclear cells/well of 96 well plate (Mean ± SEM)” value in series [2] turned out to be 110.00 ± 6.72 cells/well; in series [3] (setting [5]), 154.67 ± 8.43 cells/well; in series [3] (setting [6]), 150.33 ± 8.82 cells/well; in series [3] (setting [7]), 112.67 ± 8.63 cells/well. Further, the entries for the “% inhibition of osteoclast formation” value in series [3] (setting [7]) and in series [3] (setting [8]) were 23.23% and 25.08%, respectively.
Consider “GM-CSF: the growth factor that is conventionally used to generate DCs in vitro”, for which, in series [1] (setting [10]), the “Viability, % of Viable cells” value turned out to be 180%. The “Viability, % of Viable cells” value in series [1] (setting [9]) was determined as 180%. Further, in series [4] (setting [10]), the “Fold increase in Relative MFI over unstimulated control, CD11c” value is on record as 5.0 fold; the “Fold increase in Relative MFI over unstimulated control, CD54” value is given as 4.0 fold; the “Fold increase in Relative MFI over unstimulated control, CD80” value turned out to be 3.3 fold; the “Fold increase in Relative MFI over unstimulated control, H-2D^d” value was 2.0 fold. Also, in series [4] (setting [9]), the “Fold increase in Relative MFI over unstimulated control, CD11c” value was 5.0 fold; the “Fold increase in Relative MFI over unstimulated control, CD54” value came out at 4.0 fold; the “Fold increase in Relative MFI over unstimulated control, CD80” value is on record as 3.3 fold; the “Fold increase in Relative MFI over unstimulated control, H-2D^d” value is on record as 2.0 fold.
